This is an account of results in patent publication US20260265321A1, “PEPTIDE AND POLYPEPTIDE INHIBITING THE NF-KB SIGNALING PATHWAY” (Centre National de la Recherche Scientifique, priority 2023, published 2026).

Where two headings read alike, the source gives them in different places. Residues, ends and D or L forms follow the SMILES beside them.

The target of the experiment is T1, IKKβ(1-669) EE homodimer (Homo sapiens, UniProt O14920, S177E/S181E).
T1 construct: a nearly full-length (residues 1-669) and constitutively active (S177E/S181E) mutant construct of human IKKβ; 6×His (followed by TEV site) (N, cleaved yes); made in house; host or cells: Sf21 insect cells (baculovirus)
T1 sequence (O14920 1-669 S177E/S181E): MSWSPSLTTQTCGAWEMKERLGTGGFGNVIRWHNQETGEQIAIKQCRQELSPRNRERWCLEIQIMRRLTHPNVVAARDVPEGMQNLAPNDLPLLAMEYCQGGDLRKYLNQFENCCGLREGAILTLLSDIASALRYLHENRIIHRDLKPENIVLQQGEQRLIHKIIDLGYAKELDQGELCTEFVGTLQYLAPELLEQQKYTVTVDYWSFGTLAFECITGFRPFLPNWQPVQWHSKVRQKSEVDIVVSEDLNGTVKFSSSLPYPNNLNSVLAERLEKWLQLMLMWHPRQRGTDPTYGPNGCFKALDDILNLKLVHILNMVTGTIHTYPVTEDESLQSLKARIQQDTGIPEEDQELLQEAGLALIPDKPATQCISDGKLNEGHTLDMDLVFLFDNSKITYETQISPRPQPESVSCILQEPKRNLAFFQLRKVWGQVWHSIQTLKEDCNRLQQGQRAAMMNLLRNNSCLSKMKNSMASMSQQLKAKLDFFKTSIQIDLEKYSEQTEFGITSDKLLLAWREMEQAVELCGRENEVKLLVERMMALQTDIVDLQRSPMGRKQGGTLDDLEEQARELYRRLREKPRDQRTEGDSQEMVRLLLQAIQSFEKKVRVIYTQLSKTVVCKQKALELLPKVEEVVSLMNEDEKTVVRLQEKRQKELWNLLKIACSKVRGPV
Description: Isothermal titration calorimetry (ITC) of peptide binding to IKKβ homodimer. Conditions: for N (binding stoichiometry of IKKβ: pep) / TΔS / ΔG / ΔH: 25° C.; for N (binding stoichiometry of IKKβ: pep): 1:1 binding model. On the procedure:
All experiments were performed in ITC buffer (20 mM HEPES pH 8.0, 150 mM NaCl, 1 mM TCEP) unless otherwise stated. Purified IKKα(10-667) EE and IKKβ(1-669) EE protein samples were dialyzed overnight against ITC buffer at 4° C. Just before the ITC experiments, IKKα or IKKβ samples were concentrated, incubated at room temperature for 30 minutes and centrifuged at 11000 g to remove eventual precipitate. The final concentrations of IKKα and IKKβ in the sample cell varied between 22 and 50 μM depending on the measurement. HPLC purified synthetic peptides (IκBα pep) comprising residues 297-317 of IκBα were further desalted using a Nap5 (GE Healthcare, #17-0853-01) column equilibrated in milliQ water, lyophilized and then resuspended in ITC buffer. The concentration of peptides in the syringe varied between 220 and 975 μM depending on the measurement.
All ITC measurements were performed using a PEAQ-ITC MALVERN instrument. The titration parameters were set as following: temperature 25° C., reference power 10 μcal/s, feedback=high, stirring speed 750 RPM, initial delay 60 s, first injection 0.4 μl in 0.8 s and the remaining 19 injections were 2 μL in 4 s with 120 s of spacing. The data were fitted to a 1:1 binding model. All data were processed using NITPIC software and global fitting of two datasets was carried out using SEDPHAD.
To evaluate binding affinities, isothermal titration calorimetry (ITC) experiments were performed using a synthetic peptide that comprises the YDDφXφ motif plus the N-terminal acidic patch (residues 297-317, named IκBα pep hereafter) and purified IKKβ(1-669) EE homodimer or an equivalent construct of the IKKα homodimer (i.e. IKKα(10-667) S176E/S180E, named IKKα(10-667) EE hereafter). […] ITC analyses on the IKKα/β heterodimer were prevented by strong aggregation propensity at the concentrations required for these experiments.
All ITC experiments were performed at 25° C. The data were fitted to a 1:1 binding model. N refers to the binding stoichiometry of IKKα/β: pep, meaning that approximately half of total IKKα/β concentration binds pep ligand in agreement with the dimer form of IKKα/β being binding competent. The values for the IKKα interaction with IRF7 pep should be regarded as estimates due to low affinity and weakly exothermic binding, and therefore high experimental error and fitting uncertainty. All data were processed using NITPIC software and global fitting of two datasets was carried out using SEDPHAD.
(In general: Isothermal titration calorimetry measures the heat released or taken up as one component is titrated into another.)

`CC(C)C[C@H](NC(=O)[C@@H](NC(=O)[C@H](CC(C)C)NC(=O)[C@H](CCCNC(=N)N)NC(=O)[C@H](CCC(N)=O)NC(=O)CNC(=O)CNC(=O)[C@H](Cc1ccccc1)NC(=O)[C@@H](NC(=O)[C@H](CC(C)C)NC(=O)[C@H](CC(=O)O)NC(=O)[C@H](CC(=O)O)NC(=O)[C@H](Cc1ccc(O)cc1)NC(=O)[C@@H]1CCCN1C(=O)[C@H](CC(C)C)NC(=O)[C@H](CCC(=O)O)NC(=O)[C@H](CC(=O)O)NC(=O)[C@H](CCC(=O)O)NC(=O)[C@@H](NC(=O)[C@H](Cc1ccccc1)NC(=O)[C@@H](N)CCC(=O)O)[C@@H](C)O)C(C)C)[C@@H](C)O)C(=O)O` [IkBα pep C308L] (H-EFTEDELPYDDLVFGGQRLTL-OH; N-terminus and C-terminus assumed): for the setting “ITC”, the “enhancement of affinity to IKKβ relative to IκBα pep wt” value was determined as 15 fold and the “N (binding stoichiometry of IKKβ: pep)” value stood at 0.63. For the same molecule, where the note is “ITC, IKKβ”, the TΔS is -4.59 kcal/mol, the ΔG is -7.61 kcal/mol and the ΔH is -12.2 kcal/mol. Further, the Kd (ITC, IKKβ, read-out: KD) was 2.6 µM.
As to `CC(C)C[C@H](NC(=O)[C@@H](NC(=O)[C@H](CC(C)C)NC(=O)[C@H](CCCNC(=N)N)NC(=O)[C@H](CCC(N)=O)NC(=O)CNC(=O)CNC(=O)[C@H](Cc1ccccc1)NC(=O)[C@@H](NC(=O)[C@H](CS)NC(=O)[C@H](CC(=O)O)NC(=O)[C@H](CC(=O)O)NC(=O)[C@H](Cc1ccc(O)cc1)NC(=O)[C@@H]1CCCN1C(=O)[C@H](CC(C)C)NC(=O)[C@H](CCC(=O)O)NC(=O)[C@H](CC(=O)O)NC(=O)[C@H](CCC(=O)O)NC(=O)[C@@H](NC(=O)[C@H](Cc1ccccc1)NC(=O)[C@@H](N)CCC(=O)O)[C@@H](C)O)C(C)C)[C@@H](C)O)C(=O)O` [IκBα pep] (H-EFTEDELPYDDCVFGGQRLTL-OH; N-terminus and C-terminus assumed), the Kd worked out at 40 µM. For the same molecule, for the setting “ITC”, the “N (binding stoichiometry of IKKβ: pep)” value came out at 0.58. Further, where the note is “ITC, IKKβ”, the TΔS was -9.78 kcal/mol, the ΔG was -6.00 kcal/mol and the ΔH was -15.8 kcal/mol.

For orientation: Kd means the free concentration of one partner at which half of the binding sites on the other are occupied at equilibrium, for simple one-to-one binding.
